The source of these data is patent US20240317718A1, “SUBSTITUTED HETEROCYCLIC COMPOUNDS” (BRISTOL-MYERS SQUIBB COMPANY, priority 2021, published 2024).

What is called Papp A→B is the apparent permeability from the apical to the basolateral side of a cell layer. Low values mean poor permeation, high ones ready permeation. Broadly, the efflux ratio is a quotient of directional permeabilities that is used to spot active efflux. Broadly, the IC50 is the concentration needed to halve the response being measured.

One series is described as follows: in vitro. As to conditions: human, Caco-2, pH 7.4.
In series [1] the test system is IFNα-induced pSTAT5 (Tyk2-mediated signal transduction). Nature of the series: IFNα-induced STAT phosphorylation in human whole blood. It is filed as cell-based. The following applies: 1 h incubation with compound, 1000 U/mL IFNα A/D for 15 min, CD3 positive population, read-out: Human Whole blood IFNa pSTAT5 IC50. As for the experimental part: IFNα-Induced STAT Phosphorylation in Human Whole Blood
After an hour long incubation with compound, human whole blood (drawn with ACD-A as anticoagulant) was stimulated with 1000 U/mL recombinant human IFNα A/D (R&D Systems 11200-2) for 15 min. The stimulation was stopped by adding Fix/Lyse buffer (BD 558049). Cells were stained with a CD3 FITC antibody (BD 555916), washed, and permeabilized on ice using Perm III buffer (BD 558050). Cells were then stained with an Alexa-Fluor 647 pSTAT5 (pY694) antibody (BD 612599) for 60 min prior to analysis on the iQue Plus. The amount of pSTAT5 expression was quantitated by median fluorescence intensity after gating on the CD3 positive population.

Turning to `[2H]C([2H])([2H])NC(=O)c1nnc(NC(=O)C2CC2)cc1Nc1nccc(-c2nc(C)ns2)c1OC` [Example 39, 6-cyclopropaneamido-4-{[3-methoxy-4-(3-methyl-1,2,4-thiadiazol-5-yl)pyridin-2-yl]amino}-N-(^2H3)methylpyridazine-3-carboxamide], in the series “in vitro”, the Papp A→B at 2 h, 3 μM stood at 46.3 ×10⁻⁶ cm/s and the efflux ratio at 2 h, 3 μM worked out at 0.3. Moreover, the IC50 in series [1] was 159 nM.

In the case of `[2H]C([2H])([2H])NC(=O)c1nnc(NC(=O)C2CC2)cc1Nc1cccc(-c2ccc(C(C)(C)C#N)cn2)c1OC` [Example 24, 4-({3-[5-(1-cyano-1-methylethyl)pyridin-2-yl]-2-methoxyphenyl}amino)-6-cyclopropaneamido-N-(^2H3)methylpyridazine-3-carboxamide], in the series “in vitro”, the Papp A→B at 2 h, 3 μM came out at 14.8 ×10⁻⁶ cm/s and the efflux ratio at 2 h, 3 μM is 1.2. For the same molecule, in series [1], the IC50 was 426 nM.

Regarding `[2H]C([2H])([2H])NC(=O)c1nnc(NC(=O)C2CC2)cc1Nc1cc(F)cc(-c2cnc(C3CC3)cn2)c1OC` [Example 16, 6-(cyclopropanecarboxamido)-4-((3-(5-cyclopropylpyrazin-2-yl)-5-fluoro-2-methoxyphenyl)amino)-N-(methyl-d3)pyridazine-3-carboxamide], in “in vitro”, the Papp A→B at 2 h, 3 μM was 19.4 ×10⁻⁶ cm/s and the efflux ratio at 2 h, 3 μM stood at 0.5. Also, in series [1], the IC50 stood at 197 nM.

Regarding `[2H]C([2H])([2H])NC(=O)c1nnc(NC(=O)C2CC2)cc1Nc1nccc(-c2cnn(C)c2C)c1OC` [Example 32, 6-cyclopropaneamido-4-{[4-(1,5-dimethyl-1H-pyrazol-4-yl)-3-methoxypyridin-2-yl]amino}-N-(^2H3)methylpyridazine-3-carboxamide], in “in vitro”, the Papp A→B at 2 h, 3 μM was 31.5 ×10⁻⁶ cm/s and the efflux ratio at 2 h, 3 μM turned out to be 0.9. In addition, the IC50 in series [1] came to 437 nM.

`[2H]C([2H])([2H])NC(=O)c1nnc(NC(=O)C2CC2)cc1Nc1cc(C)cc(-c2cnc(C3(O)CCC3)cn2)c1OC` [Example 14, 6-(cyclopropanecarboxamido)-4-((3-(5-(1-hydroxycyclobutyl)pyrazin-2-yl)-2-methoxy-5-methylphenyl)amino)-N-(methyl-d3)pyridazine-3-carboxamide]: in “in vitro”, the Papp A→B at 2 h, 3 μM was found to be 37.8 ×10⁻⁶ cm/s and the efflux ratio at 2 h, 3 μM came to 0.9. For the same molecule, in series [1], the IC50 turned out to be 148 nM.

Turning to `[2H]C([2H])([2H])NC(=O)c1nnc(NC(=O)C2C[C@H]2C)cc1Nc1cccc(-c2nnn(C)n2)c1OC` (mixture of isomers) [Example 25, 4-{[2-methoxy-3-(2-methyl-2H-1,2,3,4-tetrazol-5-yl)phenyl]amino}-N-(^2H3)methyl-6-[(1R,2R)-2-methylcyclopropaneamido]pyridazine-3-carboxamide], in the series “in vitro”, the Papp A→B at 2 h, 3 μM stood at 23.3 ×10⁻⁶ cm/s and the efflux ratio at 2 h, 3 μM was determined as 1.1. Further, the IC50 in series [1] was 248 nM.

Turning to `[2H]C([2H])([2H])NC(=O)c1nnc(NC(=O)C2CC2)cc1Nc1cccc(-c2noc(C(F)F)n2)c1OC` [Example 19, 6-(cyclopropanecarboxamido)-4-((3-(5-(difluoromethyl)-1,2,4-oxadiazol-3-yl)-2-methoxyphenyl)amino)-N-(methyl-d3)pyridazine-3-carboxamide], in the series “in vitro”, the Papp A→B at 2 h, 3 μM turned out to be 17 ×10⁻⁶ cm/s and the efflux ratio at 2 h, 3 μM turned out to be 0.6. For the same molecule, the IC50 in series [1] is 69 nM.

In the case of `[2H]C([2H])([2H])NC(=O)c1nnc(NC(=O)C2CC2)cc1Nc1cc(F)cc(-c2cnc(C3(O)CCC3)cn2)c1OC` [Example 15, 6-cyclopropaneamido-4-({5-fluoro-3-[5-(1-hydroxycyclobutyl)pyrazin-2-yl]-2-methoxyphenyl}amino)-N-(^2H3)methylpyridazine-3-carboxamide], in “in vitro”, the Papp A→B at 2 h, 3 μM came to 30.9 ×10⁻⁶ cm/s and the efflux ratio at 2 h, 3 μM turned out to be 1. For the same molecule, in series [1], the 50% inhibitory concentration (IC50) was 99 nM.

Consider `CNC(=O)c1nnc(NC(=O)C2CC2)cc1Nc1cccc(-c2cnc(C3CC3)cn2)c1OC` [Example 11, 6-cyclopropaneamido-4-{[3-(5-cyclopropylpyrazin-2-yl)-2-methoxyphenyl]amino}-N-(^2H3)methylpyridazine-3-carboxamide], for which the IC50 in series [1] was determined as 165 nM.

`[2H]C([2H])([2H])NC(=O)c1nnc(NC(=O)C2CC2)cc1Nc1cccc(-c2noc(CCF)n2)c1OC` [Example 5, 6-(cyclopropanecarboxamido)-4-((3-(5-(2-fluoroethyl)-1,2,4-oxadiazol-3-yl)-2-methoxyphenyl)amino)-N-(methyl-d3)pyridazine-3-carboxamide]: in “in vitro”, the Papp A→B at 2 h, 3 μM worked out at 64 ×10⁻⁶ cm/s and the efflux ratio at 2 h, 3 μM amounted to 0.7. Also, the IC50 in series [1] was determined as 91 nM.

In the case of `CNC(=O)c1nnc(NC(=O)C2CC2)cc1Nc1cccc(-c2cnc([N+](=O)[O-])cn2)c1OC` [Example 12, 6-cyclopropaneamido-4-{[2-methoxy-3-(5-nitropyrazin-2-yl)phenyl]amino}-N-(^2H3)methylpyridazine-3-carboxamide], the IC50 in series [1] is 44 nM.

As to `[2H]C([2H])([2H])NC(=O)c1nnc(NC(=O)C2CC2)cc1Nc1ccc(F)c(-c2cnn(C)c2)c1OC` [Example 26, 6-cyclopropaneamido-4-{[4-fluoro-2-methoxy-3-(1-methyl-1H-pyrazol-4-yl)phenyl]amino}-N-(^2H3)methylpyridazine-3-carboxamide], in “in vitro”, the Papp A→B at 2 h, 3 μM came to 30 ×10⁻⁶ cm/s and the efflux ratio at 2 h, 3 μM is 1. For the same molecule, the half-inhibitory concentration (IC50) in series [1] came out at 201 nM.

Take `[2H]C([2H])([2H])NC(=O)c1nnc(NC(=O)C2CC2)cc1Nc1nccc(-c2cnsc2)c1OC` [Example 38, 6-cyclopropaneamido-4-{[3-methoxy-4-(1,2-thiazol-4-yl)pyridin-2-yl]amino}-N-(^2H3)methylpyridazine-3-carboxamide]: in the series “in vitro”, the Papp A→B at 2 h, 3 μM is 59.5 ×10⁻⁶ cm/s and the efflux ratio at 2 h, 3 μM stood at 0.5. Moreover, the IC50 in series [1] came to 381 nM.

For the molecule `[2H]C([2H])([2H])NC(=O)c1nnc(NC(=O)C2CC2)cc1Nc1cc(F)cc(-c2cnn(C)c2)c1OC` [Example 27, 6-cyclopropaneamido-4-{[5-fluoro-2-methoxy-3-(1-methyl-1H-pyrazol-4-yl)phenyl]amino}-N-(^2H3)methylpyridazine-3-carboxamide], in “in vitro”, the Papp A→B at 2 h, 3 μM is 31.2 ×10⁻⁶ cm/s and the efflux ratio at 2 h, 3 μM turned out to be 0.9. Also, in series [1], the IC50 turned out to be 177 nM.

`CCOCc1nc(-c2cccc(Nc3cc(NC(=O)C4CC4)nnc3C(=O)NC)c2OC)no1` [Example 3, 6-cyclopropaneamido-4-({3-[5-(ethoxymethyl)-1,2,4-oxadiazol-3-yl]-2-methoxyphenyl}amino)-N-(^2H3)methylpyridazine-3-carboxamide]: the IC50 in series [1] is 31 nM.

Regarding `[2H]C([2H])([2H])NC(=O)c1nnc(NC(=O)C2CC2)cc1Nc1cccc(-c2cnc(C#N)cn2)c1OC` [Example 29, 4-{[3-(5-cyanopyrazin-2-yl)-2-methoxyphenyl]amino}-6-cyclopropaneamido-N-(^2H3)methylpyridazine-3-carboxamide], in “in vitro”, the Papp A→B at 2 h, 3 μM was determined as 31.7 ×10⁻⁶ cm/s and the efflux ratio at 2 h, 3 μM is 0.5. For the same molecule, the IC50 in series [1] turned out to be 417 nM.

For `[2H]C([2H])([2H])NC(=O)c1nnc(NC(=O)C2CC2)cc1Nc1nccc(-c2nccs2)c1OC` [Example 33, 6-cyclopropaneamido-4-{[3-methoxy-4-(1,3-thiazol-2-yl)pyridin-2-yl]amino}-N-(^2H3)methylpyridazine-3-carboxamide], in “in vitro”, the Papp A→B at 2 h, 3 μM is 38.3 ×10⁻⁶ cm/s and the efflux ratio at 2 h, 3 μM amounted to 0.4. Also, in series [1], the IC50 turned out to be 207 nM.

Regarding `CNC(=O)c1nnc(NC(=O)C2CC2)cc1Nc1cccc(-c2ncns2)c1OC` [Example 9, 6-cyclopropaneamido-4-{[2-methoxy-3-(1,2,4-thiadiazol-5-yl)phenyl]amino}-N-(^2H3)methylpyridazine-3-carboxamide], in series [1], the IC50 is 161 nM.

Consider `[2H]C([2H])([2H])NC(=O)c1nnc(NC(=O)[C@@H]2C[C@H]2C)cc1Nc1nccc(-c2nc(C)ns2)c1OC` [Example 40, 4-{[3-methoxy-4-(3-methyl-1,2,4-thiadiazol-5-yl)pyridin-2-yl]amino}-N-(^2H3)methyl-6-[(1R,2R)-2-methylcyclopropaneamido]pyridazine-3-carboxamide], for which, in the series “in vitro”, the Papp A→B at 2 h, 3 μM came out at 12.6 ×10⁻⁶ cm/s and the efflux ratio at 2 h, 3 μM amounted to 0.3. For the same molecule, the IC50 in series [1] was 179 nM.

As for `CNC(=O)c1nnc(NC(=O)C2CC2)cc1Nc1cccc(-c2cnc(F)cn2)c1OC` [Example 10, 6-cyclopropaneamido-4-{[3-(5-fluoropyrazin-2-yl)-2-methoxyphenyl]amino}-N-(^2H3)methylpyridazine-3-carboxamide], the IC50 in series [1] was 219 nM.

For the molecule `CNC(=O)c1nnc(NC(=O)C2CC2)cc1Nc1cccc(-c2nc(C)ns2)c1OC` [Example 13, 6-cyclopropaneamido-4-{[2-methoxy-3-(3-methyl-1,2,4-thiadiazol-5-yl)phenyl]amino}-N-(^2H3)methylpyridazine-3-carboxamide], the IC50 in series [1] came to 51 nM.

On to `CNC(=O)c1nnc(NC(=O)C2CC2)cc1Nc1cccc(-c2noc(CCOC)n2)c1OC` [Example 4, 6-cyclopropaneamido-4-({2-methoxy-3-[5-(2-methoxyethyl)-1,2,4-oxadiazol-3-yl]phenyl}amino)-N-(^2H3)methylpyridazine-3-carboxamide], for which the IC50 in series [1] worked out at 9 nM.

Consider `CNC(=O)c1nnc(NC(=O)C2CC2)cc1Nc1cccc(-c2cc(C)ncn2)c1OC` [Example 8, 6-cyclopropaneamido-4-{[2-methoxy-3-(6-methylpyrimidin-4-yl)phenyl]amino}-N-(^2H3)methylpyridazine-3-carboxamide], for which the IC50 in series [1] turned out to be 248 nM.
